Here are results for 22 compounds from US20080200454A1, “CARBON-LINKED TETRAHYDRO-PYRAZOLO-PYRIDINE MODULATORS OF CATHEPSIN S” (priority 2007, published 2008).

The IC50 is the concentration that inhibits the measured activity by half.

The target in the first experiment is Recombinant human cathepsin S (CatS) (Homo sapiens, UniProt P25774). Description: Recombinant human cathepsin S (CatS) inhibition assay, fluorogenic substrate Z-Valine-Valine-Arginine-AMC.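 Further: Baculovirus-expressed CatS in pH 5.0 sodium acetate buffer with DTT and NaCl, fluorescence read each minute over 20 min, inhibition derived from rate slope.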
Sequence of Recombinant human cathepsin S (CatS) (P25774 115-331): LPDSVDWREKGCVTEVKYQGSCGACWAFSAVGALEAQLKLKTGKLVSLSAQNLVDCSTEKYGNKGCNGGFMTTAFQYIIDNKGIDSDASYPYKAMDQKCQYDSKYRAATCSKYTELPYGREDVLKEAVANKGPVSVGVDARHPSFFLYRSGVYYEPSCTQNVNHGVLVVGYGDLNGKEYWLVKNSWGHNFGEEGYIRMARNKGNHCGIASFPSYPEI
Settings: not given
For `CC(C)(C)OC(=O)N1CCc2cc(C#Cc3cc(-c4nn(CCCN5CCOCC5)c5c4CN(S(C)(=O)=O)CC5)ccc3Cl)ccc2C1=O` [Example 525, 1,1-Dimethylethyl 6-({2-chloro-5-[5-(methylsulfonyl)-1-(3-morpholin-4-ylpropyl)-4,5,6,7-tetrahydro-1H-pyrazolo[4,3-c]pyridin-3-yl]phenyl}ethynyl)-1-oxo-3,4-dihydroisoquinoline-2(1H)-carboxylate], the IC50 is 350 nM.

Turning to `C[C@H]1COCCN1CCCn1nc(-c2ccc(Cl)c(C#Cc3ccc(Cl)c(COC4CCNC4)c3)c2)c2c1CCN(C(=O)C(N)=O)C2` (stereo partly drawn) [Example 275, (S)-2-[3-[4-Chloro-3-[4-chloro-3-(pyrrolidin-3-yloxymethyl)-phenylethynyl]-phenyl}-1-[3-(3-methyl-morpholin-4-yl)-propyl]-1,4,6,7-tetrahydro-pyrazolo[4,3-c]pyridin-5-yl}-2-oxo-acetamide], the IC50 worked out at 50 nM.

`CS(=O)(=O)N1CCc2c(c(-c3ccc(Cl)c(C#CCO)c3)nn2CCCN2CCC(N3CCCC3=O)CC2)C1` [Example 310, 1-[1-(3-{3-[4-Chloro-3-(3-hydroxyprop-1-yn-1-yl)phenyl]-5-(methylsulfonyl)-4,5,6,7-tetrahydro-1H-pyrazolo[4,3-c]pyridin-1-yl}propyl)piperidin-4-yl]pyrrolidin-2-one]: the IC50 turned out to be 2120 nM.

Take `CN1CCN(CCCCc2cc(-c3nn(CCCN4CCC(N5CCCC5=O)CC4)c4c3CN(S(C)(=O)=O)CC4)ccc2Cl)CC1` [Example 112, 1-{1-[3-(3-{4-Chloro-3-[4-(4-methyl-piperazin-1-yl)-butyl]-phenyl}-5-methanesulfonyl-4,5,6,7-tetrahydro-pyrazolo[4,3-c]pyridin-1-yl)-propyl]-piperidin-4-yl}-pyrrolidin-2-one]: the IC50 was 4920 nM.

For `CC(C)(C)OC(=O)NCc1ccccc1C#Cc1cc(-c2nn(CCCN3CCOCC3)c3c2CN(S(C)(=O)=O)CC3)ccc1Cl` [Example 384, 1,1-Dimethylethyl {[2-({2-chloro-5-[5-(methylsulfonyl)-1-(3-morpholin-4-ylpropyl)-4,5,6,7-tetrahydro-1H-pyrazolo[4,3-c]pyridin-3-yl]phenyl}ethynyl)phenyl]methyl}carbamate], the IC50 was 2790 nM.

Regarding `CNCCCNC(=O)c1ccc(C#Cc2cc(-c3nn(CCCN4CCOC[C@@H]4C)c4c3CN(C(=O)C(N)=O)CC4)ccc2Cl)cc1` [Example 613, 4-{[5-(5-[Amino(oxo)acetyl]-1-{3-[(3S)-3-methylmorpholin-4-yl]propyl}-4,5,6,7-tetrahydro-1H-pyrazolo[4,3-c]pyridin-3-yl)-2-chlorophenyl]ethynyl}-N-[3-(methylamino)propyl]benzamide], the IC50 stood at 40 nM.

Turning to `CS(=O)(=O)N1CCc2c(c(-c3ccc(Cl)c(C#Cc4ccc(CNCc5ccc(Cl)cc5)cc4)c3)nn2CCCN2CCC(C(N)=O)CC2)C1` [Example 350, 1-{3-[3-(4-Chloro-3-{[4-({[(4-chlorophenyl)methyl]amino}methyl)phenyl]ethynyl}phenyl)-5-(methylsulfonyl)-4,5,6,7-tetrahydro-1H-pyrazolo[4,3-c]pyridin-1-yl]propyl}piperidine-4-carboxamide], the IC50 was determined as 40 nM.

For `CS(=O)(=O)N1CCc2c(c(-c3ccc(Cl)c(C#Cc4ccc5c(c4)CNCC5)c3)nn2CCCN2CCC(C(N)=O)CC2)C1` [Example 135, 1-(3-{3-[4-Chloro-3-(1,2,3,4-tetrahydro-isoquinolin-7-ylethynyl)-phenyl]-5-methanesulfonyl-4,5,6,7-tetrahydro-pyrazolo[4,3-c]pyridin-1-yl}-propyl)-piperidine-4-carboxylic acid amide], the IC50 was 60 nM.

Regarding `NC(=O)N1CCc2c(c(-c3ccc(Cl)c(C#Cc4ccc(Cl)c(C(=O)NC[C@@H]5CCNC5)c4)c3)nn2CCCN2CCSCC2)C1` [Example 582, 3-{4-Chloro-3-[(4-chloro-3-{[(3R)-pyrrolidin-3-ylmethyl]carbamoyl}phenyl)ethynyl]phenyl}-1-(3-thiomorpholin-4-ylpropyl)-1,4,6,7-tetrahydro-5H-pyrazolo[4,3-c]pyridine-5-carboxamide], the concentration for half-maximal inhibition (IC50) worked out at 40 nM.

On to `CN(C)C(=O)C(=O)N1CCc2c(c(-c3ccc(Cl)c(C#Cc4ccc(CNCc5ccc(Cl)cc5)cc4)c3)nn2CCCN2CCOCC2)C1` [Example 152, 2-[3-(4-Chloro-3-{[4-({[(4-chlorophenyl)methyl]amino}methyl)phenyl]ethynyl}phenyl)-1-(3-morpholin-4-ylpropyl)-1,4,6,7-tetrahydro-5H-pyrazolo[4,3-c]pyridin-5-yl]-N,N-dimethyl-2-oxoacetamide], for which the IC50 came to 110 nM.

Staying with this experiment, now noted: CatS IC50.
As for `CS(=O)(=O)N1CCc2c(c(-c3ccc(Cl)c(C#Cc4ccc(CNCc5ccc(Cl)cc5)cc4)c3)nn2CCCN2CCN(c3ccncc3)CC2)C1` [Example 416, 1-{4-[(2-Chloro-5-{5-(methylsulfonyl)-1-[3-(4-pyridin-4-ylpiperazin-1-yl)propyl]-4,5,6,7-tetrahydro-1H-pyrazolo[4,3-c]pyridin-3-yl}phenyl)ethynyl]phenyl}-N-[(4-chlorophenyl)methyl]methanamine], the IC50 came out at 70 nM.

In the case of `CS(=O)(=O)N1CCc2c(c(-c3ccc(Cl)c(C#Cc4ccc5c(c4)CN[C@@H](C(=O)N4CCCC4)C5)c3)nn2CCCN2CCOCC2)C1` [Example 196, (3R)-7-({2-Chloro-5-[5-(methylsulfonyl)-1-(3-morpholin-4-ylpropyl)-4,5,6,7-tetrahydro-1H-pyrazolo[4,3-c]pyridin-3-yl]phenyl}ethynyl)-3-(pyrrolidin-1-ylcarbonyl)-1,2,3,4-tetrahydroisoquinoline], the IC50 is 650 nM.

For the compound `COc1ccccc1CNCc1ccc(C#Cc2cc(-c3nn(CCCN4CCSCC4)c4c3CN(C(N)=O)CC4)ccc2Cl)cc1` [Example 533, 3-[4-Chloro-3-({4-[({[2-(methyloxy)phenyl]methyl}amino)methyl]phenyl}ethynyl)phenyl]-1-(3-thiomorpholin-4-ylpropyl)-1,4,6,7-tetrahydro-5H-pyrazolo[4,3-c]pyridine-5-carboxamide], the half-inhibitory concentration (IC50) was found to be 100 nM.

Turning to `C[C@H]1COCCN1CCCn1nc(-c2ccc(Cl)c(C#Cc3ccc4c(c3)CNCC4)c2)c2c1CCN(S(C)(=O)=O)C2` [Example 278, 7-({2-Chloro-5-[1-{3-[(3S)-3-methylmorpholin-4-yl]propyl}-5-(methylsulfonyl)-4,5,6,7-tetrahydro-1H-pyrazolo[4,3-c]pyridin-3-yl]phenyl}ethynyl)-1,2,3,4-tetrahydroisoquinoline], the IC50 was 110 nM.

`CS(=O)(=O)N1CCc2c(c(-c3ccc(Cl)c(C#Cc4ccc5c(c4)CN[C@@H](C(N)=O)C5)c3)nn2CCCN2CCOCC2)C1` [Example 197, (3R)-7-({2-Chloro-5-[5-(methylsulfonyl)-1-(3-morpholin-4-ylpropyl)-4,5,6,7-tetrahydro-1H-pyrazolo[4,3-c]pyridin-3-yl]phenyl}ethynyl)-1,2,3,4-tetrahydroisoquinoline-3-carboxamide]: the half-maximal inhibitory concentration (IC50) came out at 200 nM.

With `CS(=O)(=O)N1CCc2c(c(-c3ccc(Cl)c(C#Cc4ccc(CNCc5ccc(Cl)cc5)cc4)c3)nn2CCCN2CCN(C(=O)c3ccccc3)CC2)C1` [Example 380, 1-[4-({2-Chloro-5-[5-(methylsulfonyl)-1-{3-[4-(phenylcarbonyl)piperazin-1-yl]propyl}-4,5,6,7-tetrahydro-1H-pyrazolo[4,3-c]pyridin-3-yl]phenyl}ethynyl)phenyl]-N-[(4-chlorophenyl)methyl]methanamine], the IC50 was 60 nM.

For the compound `NC(=O)N1CCc2c(c(-c3ccc(Cl)c(C#Cc4ccc(CNCc5ccc(Cl)cc5)cc4)c3)nn2CCCN2CCN(C3CCC3)CC2)C1` [Example 460, 3-(4-Chloro-3-{[4-({[(4-chlorophenyl)methyl]amino}methyl)phenyl]ethynyl}phenyl)-1-[3-(4-cyclobutylpiperazin-1-yl)propyl]-1,4,6,7-tetrahydro-5H-pyrazolo[4,3-c]pyridine-5-carboxamide], the half-maximal inhibitory concentration (IC50) was found to be 170 nM.

For the compound `CS(=O)(=O)N1CCc2c(c(-c3ccc(Cl)c(C#Cc4cccc(CNCc5ccccn5)c4)c3)nn2CCCN2CCOCC2)C1` [Example 187, 1-[3-({2-Chloro-5-[5-(methylsulfonyl)-1-(3-morpholin-4-ylpropyl)-4,5,6,7-tetrahydro-1H-pyrazolo[4,3-c]pyridin-3-yl]phenyl}ethynyl)phenyl]-N-(pyridin-2-ylmethyl)methanamine], the IC50 came to 150 nM.

For `NC(=O)N1CCc2c(c(-c3ccc(Cl)c(C#Cc4ccc(CNCc5ccc(Cl)cc5)cc4)c3)nn2CCCN2CCN(C3CC3)CC2)C1` [Example 463, 3-(4-Chloro-3-{[4-({[(4-chlorophenyl)methyl]amino}methyl)phenyl]ethynyl}phenyl)-1-[3-(4-cyclopropylpiperazin-1-yl)propyl]-1,4,6,7-tetrahydro-5H-pyrazolo[4,3-c]pyridine-5-carboxamide], the IC50 is 110 nM.

As to `CC(=O)NC1CCN(CCCn2nc(-c3ccc(Cl)c(C#Cc4ccc5c(c4)CNCC5)c3)c3c2CCN(S(C)(=O)=O)C3)CC1` [Example 227, N-[1-(3-{3-[4-Chloro-3-(1,2,3,4-tetrahydroisoquinolin-7-ylethynyl)phenyl]-5-(methylsulfonyl)-4,5,6,7-tetrahydro-1H-pyrazolo[4,3-c]pyridin-1-yl}propyl)piperidin-4-yl]acetamide], the IC50 stood at 40 nM.

The experiment is the same for the next values; noted with them: CatS IC50, Table 2; average of results obtained.
For `CS(=O)(=O)N1CCc2c(c(-c3ccc(Cl)c(C#Cc4ccc(C=O)cc4)c3)nn2CCCN2CCOCC2)C1` [Example 37, 4-{2-Chloro-5-[5-methanesulfonyl-1-(3-morpholin-4-yl-propyl)-4,5,6,7-tetrahydro-1H-pyrazolo[4,3-c]pyridin-3-yl]-phenylethynyl}-benzaldehyde], the IC50 came out at 120 nM.

Regarding `CS(=O)(=O)N1CCc2c(c(-c3ccc(Cl)c(C#Cc4ccncc4)c3)nn2CCCN2CCOCC2)C1` [Example 20, 3-(4-Chloro-3-pyridin-4-ylethynyl-phenyl)-5-methanesulfonyl-1-(3-morpholin-4-yl-propyl)-4,5,6,7-tetrahydro-1H-pyrazolo[4,3-c]pyridine], the IC50 amounted to 540 nM.
